Results as given in patent US20220128542A1, “TREATMENT EFFICIENCY EVALUATION” (TX MEDIC AB, priority 2019, published 2022).

Test system: brain of rats subjected to severe traumatic brain injury (sTBI)
Assay: Ingenuity pathway analysis of differentially regulated genes after sTBI (canonical pathways, diseases and molecular functions; Example 4)
Design: species or system rat
Description: Pathway analysis of the differentially regulated genes was carried out using the Ingenuity pathway analysis package. The analysis was performed with special reference to pathways and molecular processes and diseases associated with neurodegenerative disease, including dementia, Alzheimer's disease, ALS, TBI and stroke, and with scarring and fibrosis, including glaucoma and normal pressure hydrocephalus (NPH) after subarachnoid haemorrhage.

[1] = TBI + 1 mg/kg LMW-DS, 2 days after TBI
[2] = TBI + 1 mg/kg LMW-DS, 7 days after TBI, relative to control
[3] = TBI + 1 mg/kg LMW-DS, 7 days after TBI
[4] = TBI + 5 mg/kg LMW-DS, 2 days after TBI

sodium salt of dextran sulfate [LMW-DS]
Effect on diseases or functions annotation: Apoptosis of muscle cells [1]: Activated
Effect on diseases or functions annotation: Behavior [1]: Activated
Effect on diseases or functions annotation: Binding of tumor cell lines [1]: Activated
Effect on diseases or functions annotation: Carcinoma [1]: Inhibited
Effect on diseases or functions annotation: Cell death [1]: Inhibited
Effect on diseases or functions annotation: Cell death of blood cells [1]: Activated
Effect on diseases or functions annotation: Cell death of immune cells [1]: Activated
Effect on diseases or functions annotation: Cell movement [1]: Activated
Effect on diseases or functions annotation: Cell movement of muscle cells [1]: Inhibited
Effect on diseases or functions annotation: Cell movement of vascular smooth muscle cells [1]: Inhibited
Effect on diseases or functions annotation: Cell proliferation of T lymphocytes [1]: Inhibited
Effect on diseases or functions annotation: Cellular homeostasis [1]: Activated
Effect on diseases or functions annotation: Development of connective tissue cells [1]: Inhibited
Effect on diseases or functions annotation: Differentiation of bone cells [1]: Inhibited
Effect on diseases or functions annotation: Differentiation of connective tissue cells [1]: Activated
Effect on diseases or functions annotation: Differentiation of hematopoietic progenitor cells [1]: Activated
Effect on diseases or functions annotation: Differentiation of osteoclasts [1]: Inhibited
Effect on diseases or functions annotation: Digestive organ tumor [1]: Inhibited
Effect on diseases or functions annotation: Experimentally-induced arthritis [1]: Inhibited
Effect on diseases or functions annotation: Extracranial solid tumor [1]: Activated
Effect on diseases or functions annotation: Genital tumor [1]: Activated
Effect on diseases or functions annotation: Incidence of tumor [1]: Inhibited
Effect on diseases or functions annotation: Inflammation of absolute anatomical region [1]: Inhibited
Effect on diseases or functions annotation: Inflammation of body cavity [1]: Inhibited
Effect on diseases or functions annotation: Inflammation of joint [1]: Inhibited
Effect on diseases or functions annotation: Inflammation of organ [1]: Inhibited
Effect on diseases or functions annotation: Inflammatory response [1]: Activated
Effect on diseases or functions annotation: Interaction of mononuclear leukocytes [1]: Activated
Effect on diseases or functions annotation: Leukocyte migration [1]: Activated
Effect on diseases or functions annotation: Leukopoiesis [1]: Activated
Effect on diseases or functions annotation: Lymphopoiesis [1]: Activated
Effect on diseases or functions annotation: Malignant solid tumor [1]: Inhibited
Effect on diseases or functions annotation: Migration of cells [1]: Activated
Effect on diseases or functions annotation: Necrosis [1]: Inhibited
Effect on diseases or functions annotation: Non-hematologic malignant neoplasm [1]: Inhibited
Effect on diseases or functions annotation: Pelvic tumor [1]: Inhibited
Effect on diseases or functions annotation: Proliferation of blood cells [1]: Inhibited
Effect on diseases or functions annotation: Proliferation of lymphatic system cells [1]: Inhibited
Effect on diseases or functions annotation: Proliferation of lymphocytes [1]: Inhibited
Effect on diseases or functions annotation: Quantity of blood cells [1]: Inhibited
Effect on diseases or functions annotation: Quantity of bone [1]: Inhibited
Effect on diseases or functions annotation: Quantity of cells [1]: Inhibited
Effect on diseases or functions annotation: Quantity of connective tissue cells [1]: Activated
Effect on diseases or functions annotation: Quantity of leukocytes [1]: Inhibited
Effect on diseases or functions annotation: Quantity of lymphatic system cells [1]: Inhibited
Effect on diseases or functions annotation: Quantity of phagocytes [1]: Inhibited
Effect on diseases or functions annotation: Rheumatic Disease [1]: Inhibited
Effect on diseases or functions annotation: Solid tumor [1]: Inhibited
Effect on diseases or functions annotation: Survival of organism [1]: Inhibited
Effect on diseases or functions annotation: Synthesis of hormone [1]: Activated
Effect on diseases or functions annotation: Thrombus [1]: Activated
Effect on diseases or functions annotation: Transport of molecule [1]: Activated
z score, Ingenuity canonical pathway: Adrenomedullin signaling pathway [2]: −1
z score, Ingenuity canonical pathway: ERK5 Signaling [2]: −2
z score, Ingenuity canonical pathway: Endothelin-1 Signaling [2]: 1.342
z score, Ingenuity canonical pathway: G Beta Gamma Signaling [2]: 1
z score, Ingenuity canonical pathway: NF-κB Signaling [2]: −0.447
z score, Ingenuity canonical pathway: Opioid Signaling Pathway [2]: −0.447
z score, Ingenuity canonical pathway: Role of NFAT in Regulation of the Immune Response [2]: 0.816
z score, Ingenuity canonical pathway: Synaptic Long Term Depression [2]: 1.342
Diseases or functions annotation: Abdominal cancer [3]: Inhibited
Diseases or functions annotation: Abdominal carcinoma [3]: Inhibited
Diseases or functions annotation: Cell movement [3]: Inhibited
Diseases or functions annotation: Cell viability [3]: Inhibited
Diseases or functions annotation: Concentration of hormone [3]: Inhibited
Diseases or functions annotation: Development of connective tissue cells [3]: Inhibited
Diseases or functions annotation: Development of malignant tumor [3]: Inhibited
Diseases or functions annotation: Developmental process of synapse [3]: Inhibited
Diseases or functions annotation: Differentiation of bone cells [3]: Inhibited
Diseases or functions annotation: Differentiation of connective tissue cells [3]: Inhibited
Diseases or functions annotation: Digestive organ tumor [3]: Inhibited
Diseases or functions annotation: Digestive system cancer [3]: Inhibited
Diseases or functions annotation: Epithelial neoplasm [3]: Inhibited
Diseases or functions annotation: Formation of plasma membrane [3]: Inhibited
Diseases or functions annotation: Frequency of tumor [3]: Inhibited
Diseases or functions annotation: Gastrointestinal tumor [3]: Inhibited
Diseases or functions annotation: Hematologic cancer [3]: Inhibited
Diseases or functions annotation: Hematopoietic neoplasm [3]: Inhibited
Diseases or functions annotation: Incidence of tumor [3]: Inhibited
Diseases or functions annotation: Large intestine neoplasm [3]: Inhibited
Diseases or functions annotation: Liver tumor [3]: Inhibited
Diseases or functions annotation: Malignant genitourinary solid tumor [3]: Inhibited
Diseases or functions annotation: Metabolism of hormone [3]: Inhibited
Diseases or functions annotation: Pelvic tumor [3]: Inhibited
Diseases or functions annotation: Quantity of Ca^2+ [3]: Inhibited
Diseases or functions annotation: Quantity of carbohydrate [3]: Activated
Diseases or functions annotation: Quantity of metal [3]: Activated
Diseases or functions annotation: Synthesis of lipid [3]: Activated
Diseases or functions annotation: Tumorigenesis of epithelial neoplasm [3]: Inhibited
Diseases or functions annotation: Tumorigenesis of tissue [3]: Inhibited
Diseases or functions annotation: Vaso-occlusion [3]: Activated
Diseases or functions annotation: Weight gain [3]: Activated
Ingenuity canonical pathway: Adrenomedullin signaling pathway [3]: Inhibited
Ingenuity canonical pathway: ERK5 Signaling [3]: Inhibited
Ingenuity canonical pathway: Endothelin-1 Signaling [3]: Activated
Ingenuity canonical pathway: G Beta Gamma Signaling [3]: Activated
Ingenuity canonical pathway: NF-κB Signaling [3]: Inhibited
Ingenuity canonical pathway: Opioid Signaling Pathway [3]: Inhibited
Ingenuity canonical pathway: Role of NFAT in Regulation of the Immune Response [3]: Activated
Ingenuity canonical pathway: Synaptic Long Term Depression [3]: Activated
Effect on diseases or functions annotation: Abdominal cancer [4]: Inhibited
Effect on diseases or functions annotation: Abdominal carcinoma [4]: Inhibited
Effect on diseases or functions annotation: Abdominal neoplasm [4]: Inhibited
Effect on diseases or functions annotation: Apoptosis [4]: Activated
Effect on diseases or functions annotation: Behavior [4]: Inhibited
Effect on diseases or functions annotation: Carcinoma [4]: Inhibited
Effect on diseases or functions annotation: Cell death [4]: Activated
Effect on diseases or functions annotation: Cell death of antigen presenting cells [4]: Inhibited
Effect on diseases or functions annotation: Cell death of immune cells [4]: Inhibited
Effect on diseases or functions annotation: Cell death of tumor cell lines [4]: Inhibited
Effect on diseases or functions annotation: Cell movement [4]: Inhibited
Effect on diseases or functions annotation: Cell movement of tumor cell lines [4]: Inhibited
Effect on diseases or functions annotation: Cell proliferation of leukocyte cell lines [4]: Inhibited
Effect on diseases or functions annotation: Cellular homeostasis [4]: Inhibited
Effect on diseases or functions annotation: Chemotaxis [4]: Inhibited
Effect on diseases or functions annotation: Concentration of prostaglandin [4]: Inhibited
Effect on diseases or functions annotation: Development of vasculature [4]: Inhibited
Effect on diseases or functions annotation: Digestive organ tumor [4]: Inhibited
Effect on diseases or functions annotation: Digestive system cancer [4]: Inhibited
Effect on diseases or functions annotation: Edema [4]: Activated
Effect on diseases or functions annotation: Epithelial neoplasm [4]: Inhibited
Effect on diseases or functions annotation: Extracranial solid tumor [4]: Inhibited
Effect on diseases or functions annotation: Feeding [4]: Inhibited
Effect on diseases or functions annotation: Growth of tumor [4]: Inhibited
Effect on diseases or functions annotation: Hematologic cancer [4]: Inhibited
Effect on diseases or functions annotation: Incidence of tumor [4]: Inhibited
Effect on diseases or functions annotation: Leukocyte migration [4]: Inhibited
Effect on diseases or functions annotation: Leukopoiesis [4]: Inhibited
Effect on diseases or functions annotation: Locomotion [4]: Inhibited
Effect on diseases or functions annotation: Lymphocyte homeostasis [4]: Inhibited
Effect on diseases or functions annotation: Lymphocytic cancer [4]: Inhibited
Effect on diseases or functions annotation: Lymphocytic neoplasm [4]: Inhibited
Effect on diseases or functions annotation: Lymphopoiesis [4]: Inhibited
Effect on diseases or functions annotation: Lymphoproliferative disorder [4]: Inhibited
Effect on diseases or functions annotation: Malignant solid tumor [4]: Inhibited
Effect on diseases or functions annotation: Metabolism of hormone [4]: Inhibited
Effect on diseases or functions annotation: Migration of cells [4]: Inhibited
Effect on diseases or functions annotation: Necrosis [4]: Inhibited
Effect on diseases or functions annotation: Neoplasia of leukocytes [4]: Inhibited
Effect on diseases or functions annotation: Non-melanoma solid tumor [4]: Inhibited
Effect on diseases or functions annotation: Proliferation of hematopoietic progenitor cells [4]: Inhibited
Effect on diseases or functions annotation: Quantity of cells [4]: Inhibited
Effect on diseases or functions annotation: Quantity of epithelial tissue [4]: Inhibited
Effect on diseases or functions annotation: Quantity of neuroglia [4]: Inhibited
